Reference: PMC9885860 (Pharmacological research, 2021)
Where “and” joins values, the source holds several entries; their conditions need not be identical. Equal entries are not always repeated. Entries after “also recorded” stand apart in the source; their conditions may differ. Structures can show the parent of a compound that is named as a salt. Where two headings read alike, the source gives them in different places.

Columns and labels:
α2R = target: T1, α2R (Ovis aries, UniProt A0ACI6PY47); test: Competitive inhibition of [3H]RX821002 binding in sheep cortex membranes; conditions: read-out: KDB1 for α2R; vs [3H]RX821002, sheep cortex membranes
T1 sequence (A0ACI6PY47 1-467): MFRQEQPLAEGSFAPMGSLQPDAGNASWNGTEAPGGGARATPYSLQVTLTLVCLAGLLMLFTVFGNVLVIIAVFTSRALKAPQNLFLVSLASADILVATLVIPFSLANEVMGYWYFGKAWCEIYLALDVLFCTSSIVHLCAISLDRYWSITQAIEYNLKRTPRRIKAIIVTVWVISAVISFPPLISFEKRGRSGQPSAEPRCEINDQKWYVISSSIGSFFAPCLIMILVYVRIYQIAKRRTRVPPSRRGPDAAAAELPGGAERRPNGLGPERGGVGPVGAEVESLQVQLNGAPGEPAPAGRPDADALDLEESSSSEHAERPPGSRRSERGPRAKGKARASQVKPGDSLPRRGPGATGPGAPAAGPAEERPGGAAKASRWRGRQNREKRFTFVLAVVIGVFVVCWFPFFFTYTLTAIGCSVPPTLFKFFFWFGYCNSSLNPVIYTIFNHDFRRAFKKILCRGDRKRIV

D4.4R [1] = target: T2, D4.4R (Homo sapiens, UniProt P21917); format: binding
T2 sequence (P21917 1-419): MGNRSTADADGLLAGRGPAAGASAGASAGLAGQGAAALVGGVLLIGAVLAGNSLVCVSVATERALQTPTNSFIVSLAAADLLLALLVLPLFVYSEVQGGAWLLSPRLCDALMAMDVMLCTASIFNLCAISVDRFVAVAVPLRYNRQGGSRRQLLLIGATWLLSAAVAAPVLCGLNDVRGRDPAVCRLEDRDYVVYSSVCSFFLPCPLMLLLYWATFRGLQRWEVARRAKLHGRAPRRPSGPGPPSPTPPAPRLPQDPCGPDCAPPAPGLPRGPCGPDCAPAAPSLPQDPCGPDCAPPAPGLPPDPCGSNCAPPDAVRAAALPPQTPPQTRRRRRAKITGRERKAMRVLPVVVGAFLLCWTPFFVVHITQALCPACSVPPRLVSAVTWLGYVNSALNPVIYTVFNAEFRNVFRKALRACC

α2AR-D4.4R [2] = target: T3, α2AR-D4.4R (Homo sapiens, UniProt P08913+P21917); format: binding; conditions: 12°C; control or in presence of A-412997 (30 nM)
T3 sequence (P08913 1-465): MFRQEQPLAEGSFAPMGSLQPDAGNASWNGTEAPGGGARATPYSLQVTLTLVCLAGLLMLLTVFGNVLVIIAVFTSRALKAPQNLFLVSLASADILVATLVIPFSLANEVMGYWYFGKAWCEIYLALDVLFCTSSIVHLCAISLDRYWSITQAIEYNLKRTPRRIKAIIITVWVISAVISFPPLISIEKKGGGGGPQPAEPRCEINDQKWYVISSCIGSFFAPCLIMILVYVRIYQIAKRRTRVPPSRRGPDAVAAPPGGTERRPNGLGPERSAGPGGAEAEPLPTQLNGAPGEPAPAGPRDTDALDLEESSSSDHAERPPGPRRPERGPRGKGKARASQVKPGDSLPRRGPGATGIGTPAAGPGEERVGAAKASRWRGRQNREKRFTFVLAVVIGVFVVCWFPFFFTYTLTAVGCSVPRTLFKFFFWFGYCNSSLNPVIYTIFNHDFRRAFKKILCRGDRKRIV
T3 sequence (P21917 1-419): T2 sequence (P21917 1-419)

α2AR-D4.7R [3] = target: α2AR-D4.7R (Homo sapiens, UniProt P08913+P21917); test: CODA-RET Gαi1 activation, α2AR-D4.7R heteromer; format: cell-based; conditions: for Emax: Gαi1, Table 2
Sequence of α2AR-D4.7R (Homo sapiens, UniProt P08913+P21917) (P62873 2-340, one chain of several): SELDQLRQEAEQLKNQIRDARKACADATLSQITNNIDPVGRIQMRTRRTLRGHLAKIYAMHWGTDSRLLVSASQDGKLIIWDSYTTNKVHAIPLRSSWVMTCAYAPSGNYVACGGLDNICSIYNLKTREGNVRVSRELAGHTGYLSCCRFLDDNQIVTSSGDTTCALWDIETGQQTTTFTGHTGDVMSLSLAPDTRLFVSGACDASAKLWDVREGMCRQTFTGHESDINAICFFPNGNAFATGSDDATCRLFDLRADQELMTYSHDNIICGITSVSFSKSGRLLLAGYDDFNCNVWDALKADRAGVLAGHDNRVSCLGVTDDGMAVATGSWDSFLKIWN
Sequence of α2AR-D4.7R (Homo sapiens, UniProt P08913+P21917) (P63096 2-354, one chain of several, further chain): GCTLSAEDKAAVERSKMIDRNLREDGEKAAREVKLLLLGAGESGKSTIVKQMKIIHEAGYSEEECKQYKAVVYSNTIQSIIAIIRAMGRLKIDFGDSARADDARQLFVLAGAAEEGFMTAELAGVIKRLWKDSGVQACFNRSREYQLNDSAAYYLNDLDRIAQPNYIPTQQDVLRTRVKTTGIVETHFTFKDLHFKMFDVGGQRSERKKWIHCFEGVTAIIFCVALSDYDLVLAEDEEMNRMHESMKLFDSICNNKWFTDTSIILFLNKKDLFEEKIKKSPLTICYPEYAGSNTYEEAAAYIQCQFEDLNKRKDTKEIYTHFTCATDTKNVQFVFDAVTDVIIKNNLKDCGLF
Sequence of α2AR-D4.7R (Homo sapiens, UniProt P08913+P21917) (P59768 2-68, one chain of several, further chain): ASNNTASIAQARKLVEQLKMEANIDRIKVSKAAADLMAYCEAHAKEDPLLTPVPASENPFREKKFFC

D4.4R-D4.4R = target: T4, D4.4R-D4.4R (Homo sapiens, UniProt P21917); test: CODA-RET Gαi1 activation, D4.4R-D4.4R homomer; format: cell-based; conditions: A-412997 1 μM; shift to the right of DA curve
T4 sequence (P21917 1-419) 1: T2 sequence (P21917 1-419)
T4 sequence (P21917 1-419) 2: T2 sequence (P21917 1-419)

D4.4R [4] = target: T2, D4.4R; test: Receptor-G protein BRET, D4.4R fused to RLuc with Gαi1 or Gαo1; format: cell-based
D4.7R = target: T5, D4.7R (Homo sapiens, UniProt P21917); test: Receptor-G protein BRET, D4.7R fused to RLuc with Gαi1 or Gαo1; format: cell-based
T5 sequence (P21917 1-264 limits assumed): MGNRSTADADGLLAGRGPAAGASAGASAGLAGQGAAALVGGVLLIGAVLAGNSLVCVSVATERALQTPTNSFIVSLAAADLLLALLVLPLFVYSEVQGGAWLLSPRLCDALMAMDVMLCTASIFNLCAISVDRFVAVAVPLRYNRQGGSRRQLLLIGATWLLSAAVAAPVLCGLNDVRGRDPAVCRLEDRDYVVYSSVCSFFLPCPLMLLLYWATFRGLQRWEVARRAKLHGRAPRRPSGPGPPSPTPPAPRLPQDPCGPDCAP
T5 sequence (P21917 297-419 limits assumed): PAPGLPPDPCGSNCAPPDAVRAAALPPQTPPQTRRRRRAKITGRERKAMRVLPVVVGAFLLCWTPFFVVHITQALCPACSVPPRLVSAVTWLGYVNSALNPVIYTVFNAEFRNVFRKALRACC

α2AR-D4.4R [5] = target: T3, α2AR-D4.4R; test: CODA-RET Gαo1 activation, α2AR-D4.4R heteromer; format: cell-based; conditions: Fig. 4D
α2AR-D4.4R cells [6] = target: T6, α2AR-D4.4R cells (Homo sapiens, UniProt P08913+P21917); test: Forskolin-induced cAMP accumulation, α2AR-D4.4R cells; format: cell-based; conditions: agonists 100 nM, forskolin 0.5 μM
T6 sequence (P08913 1-465): T3 sequence (P08913 1-465)
T6 sequence (P21917 1-419): T2 sequence (P21917 1-419)

α2AR-D4.4R cells [7] = target: T6, α2AR-D4.4R cells; test: ERK1/2 phosphorylation, α2AR-D4.4R cells; format: cell-based; conditions: agonists 300 nM, 5 min
[8] = test system: cortical slices from hD4.7R mice; test: ERK1/2 phosphorylation in cortical brain slices from knock-in hD4.7R mice; parameters: species or system mouse; conditions: agonists 1 μM
D4.7R-D4.7R = target: T7, D4.7R-D4.7R (Homo sapiens, UniProt P21917); conditions: A-412997 1 μM; shift to the right of DA curve
T7 sequence (P21917 1-419): T2 sequence (P21917 1-419)

α2AR-α2AR = target: T8, α2AR-α2AR (Homo sapiens, UniProt P08913); test: CODA-RET Gαi1 activation, α2AR-α2AR homomer; format: cell-based; conditions: for Emax: Gαi1, Table 2
T8 sequence (P08913 1-465) 1: T3 sequence (P08913 1-465)
T8 sequence (P08913 1-465) 2: T3 sequence (P08913 1-465)

α2AR-D4.4R [9] = target: T3, α2AR-D4.4R; test: CODA-RET Gαi1 activation, α2AR-D4.4R heteromer; format: cell-based; conditions: for Emax: Gαi1, Table 2
α2AR-D4.7R [10] = test: CODA-RET Gαo1 activation, α2AR-D4.7R heteromer; format: cell-based, human; conditions: Fig. 4E
α2AR (with D4.4R) = target: T9, α2AR (with D4.4R) (Homo sapiens, UniProt P08913); test: BRET α2AR-RLuc and Gαo1-mVenus, cells co-transfected with unfused D4.4R; format: cell-based; conditions: in the presence of D4.4R
T9 sequence (P08913 1-465): T3 sequence (P08913 1-465)

α2AR (with D4.7R) = target: T10, α2AR (with D4.7R) (Homo sapiens, UniProt P08913); test: BRET α2AR-RLuc and Gαo1-mVenus, cells co-transfected with unfused D4.7R; format: cell-based; conditions: in the presence of D4.7R
T10 sequence (P08913 1-465): T3 sequence (P08913 1-465)

human α2AR = target: T11, human α2AR (Homo sapiens, UniProt P08913); test: [3H]RX821002 saturation binding in HEK-293T cells transfected with human α2AR; conditions: read-out: KDA1, n=3
T11 sequence (P08913 1-465): T3 sequence (P08913 1-465)

α2AR-D4.7R [11] = format: binding, human; conditions: 12°C; control or in presence of A-412997 (30 nM)
[12] = target: human α2A adrenoceptor fused to Renilla luciferase RLuc8 (α2AR-RLuc) (human) (UniProt P08913); test: FRET or BRET
[13] = cells pretreated with antagonist

Cc1cccc(NC(=O)CN2CCC(c3ccccn3)CC2)c1.Cl.Cl [A-412997, A-412997 dihydrochloride]
Kd (α2R): 1400 nM | Kd (D4.4R [1]; read-out: KDB1, vs [3H]YM-09151-2, HEK-293T co-expressing α2AR and D4.4R, n=3): 1.1 ± 0.1 nM | koff1 of [3H]RX821002 (α2AR-D4.4R [2]): 0.25±0.07 ^* min^−1 | koff2 of [3H]RX821002 (α2AR-D4.4R [2]): 0.036±0.007 ^* min^−1 | Emax (α2AR-D4.7R [3]): 0 % of NE | effect on DA-mediated Gi protein activation (D4.4R-D4.4R): competitive antagonist of DA | Gαi1 activation (D4.4R [4]; Gαi1-mVenus): did not promote | Gαo1 activation (D4.4R [4]; Gαo1-mVenus): did promote significant Gαo1 activation | Gαi1 activation (D4.7R; Gαi1-mVenus): did not promote | Gαo1 activation (D4.7R; Gαo1-mVenus): did promote significant Gαo1 activation | Gαo1 activation (α2AR-D4.4R [5]): promoted Gαo1 activation | inhibition of forskolin-induced cAMP accumulation (α2AR-D4.4R cells [6]): more effective than dexmedetomidine | ERK1/2 phosphorylation (α2AR-D4.4R cells [7]): more effective in α2AR-D4.4R cells than in α2AR-D4.7R cells | MAPK activation (ERK1/2 phosphorylation) [8]: significantly weaker than of dexmedetomidine | effect on DA-mediated Gi protein activation (D4.7R-D4.7R): competitive antagonist of DA

CC1c2ccccc2CN1CC1=NCCN1.O=C(O)/C=C\C(=O)O (stereo not shown) [BRL44408, BRL 44408 maleate]
antagonist effect on NE- and DA-induced Gαi1 activation (α2AR-α2AR; [13]): significantly decreased the potency of NE and DA | antagonist effect on NE- and DA-induced Gαi1 activation (α2AR-D4.4R [9]; [13]): significantly decreased the potency of NE and DA | antagonist effect on NE- and DA-induced Gαi1 activation (α2AR-D4.7R [3]; [13]): significantly decreased the potency of NE and DA

Clc1cccc(Cl)c1N=C1NCCN1 [Clonidine, Clonidine hydrochloride]
Emax (α2AR-α2AR): 18±2 % of NE | Emax (α2AR-D4.4R [9]): 0 % of NE | Emax (α2AR-D4.4R [9]; listed as clonidine): complete lack of efficacy

Cc1cccc([C@H](C)c2cnc[nH]2)c1C [Dexmedetomidine, Dexmedetomidine hydrochloride]
Kd (D4.4R [1]): 2000 to 6000 nM | Emax (α2AR-α2AR): 26±3 % of NE | Gαo1 activation (α2AR-D4.7R [10]): able to activate Gαo1 | α2AR-mediated Gαo1 activation (α2AR (with D4.4R)): promotes a significant α2AR-mediated Gαo1 activation | α2AR-mediated Gαo1 activation (α2AR (with D4.7R)): promotes a significant α2AR-mediated Gαo1 activation

N=C(N)NC(=O)Cc1c(Cl)cccc1Cl [Guanfacine, Guanfacine hydrochloride]
Emax (α2AR-α2AR): 14±2 % of NE | Emax (α2AR-D4.4R [9]): 0 % of NE | Emax (α2AR-D4.4R [9]; listed as guanfacine): complete lack of efficacy | Emax (α2AR-D4.7R [3]): 20±3 % of NE

NC[C@H](O)c1ccc(O)c(O)c1 [NE, norepinephrine]
Emax (α2AR-α2AR): 100±3 % of NE | increase in NE potency on α2AR-D4.7R compared with α2AR-D4.4R (α2AR-D4.7R [3]; Gαi1 CODA-RET): five-fold

Cc1cccc(C(=O)NCN2CCN(c3ccccc3C#N)CC2)c1 [PD168077]
Kd (α2R): 80 ± 10 nM

CCCN[C@H]1CCc2nc(N)sc2C1 [Pramipexole, Pramipexole dihydrochloride]
Emax (α2AR-D4.4R [9]): 28±3 % of NE | Emax (α2AR-D4.7R [3]): 48±5 % of NE

COC1(C2=NCCN2)COc2ccccc2O1.Cl (stereo not shown) [RX821002, RX 821002 hydrochloride]
displacement of [3H]YM-09151-2 (D4.4R [1]; any concentration up to 10 μM): did not displace

CCCN(CCC)CCc1cccc2c1CC(=O)N2 [Ropinirole]
Emax (α2AR-α2AR): ineffective | EC50 (α2AR-D4.4R [9]): 400 ± 200 nM

CCCN(CCc1cccs1)[C@H]1CCc2c(O)cccc2C1 [Rotigotine, Rotigotine hydrochloride]
Emax (α2AR-α2AR): 0 % of NE | Emax (α2AR-α2AR; listed as rotigotine): ineffective; also recorded: did not produce any response | EC50 (α2AR-D4.4R [9]): 7 ± 5 nM | Emax (α2AR-D4.4R [9]): 13±2 % of NE | Emax (α2AR-D4.4R [9]; listed as rotigotine): small Gαi1 protein activation | Emax (α2AR-D4.7R [3]): did not produce any response and 0 % of NE

COC1(C2=NCCN2)COc2ccccc2O1 (stereo not shown) [[^3H]RX821002]
Kd (human α2AR): 0.62 ± 0.05 nM | RT1 (residence time) of [3H]RX821002 (α2AR-D4.4R [2]): 7 min | RT2 (residence time) of [3H]RX821002 (α2AR-D4.4R [2]): 50 min | koff1 of [3H]RX821002 (α2AR-D4.4R [2]): 0.14 ± 0.03 min⁻¹ | koff2 of [3H]RX821002 (α2AR-D4.4R [2]): 0.020 ± 0.004 min⁻¹ | RT (residence time) of [3H]RX821002 (α2AR-D4.7R [11]): 17 min | koff of [3H]RX821002 (α2AR-D4.7R [11]): 0.000967 ± 3.3e-05 s⁻¹

human dopamine D4.7 receptor fused to YFP (D4.7R-YFP)
BRET50 [12]: 60
